Data from ChEMBL document CHEMBL3885861, “Open TG-GATES”.

Species on record: Rattus norvegicus
Test: Open TG-GATES - Regimen: Single
Type: toxicity, organism-based, Sprague-Dawley
Parameters: regimen Single, gender Male, age 6 weeks
Conditions: in vivo, po, 24 h, route gavage; for Bas / Eos / Hb / Ht / Lym / MCH / MCHC / MCV / Mono / Neu / Plat / RBC / Ret / WBC: tissue Blood; for KIDNEY_L / KIDNEY_R / KIDNEY_TOTAL: tissue Kidney; for LIVER: tissue Liver; for A/G / ALP / ALT / AST / BUN / CRE / Ca / Cl / DBIL / GLC / IP / K / LDH / Na / PL / RALB / TBIL / TC / TG / TP / gamma-GTP: tissue Plasma

O=NN1CCOCC1 [N-NITROSOMORPHOLINE]
TERMINAL_BW (0 mg/kg, dose level Control): 228.1 g | Bas (0 mg/kg, dose level Control): 0% | Eos (0 mg/kg, dose level Control): 0.6% | Hb (0 mg/kg, dose level Control): 12.5 g/dL | Ht (0 mg/kg, dose level Control): 38.4% | Lym (0 mg/kg, dose level Control): 80% | MCH (0 mg/kg, dose level Control): 20.2 pg | MCHC (0 mg/kg, dose level Control): 32.5% | MCV (0 mg/kg, dose level Control): 62.2 fL | Mono (0 mg/kg, dose level Control): 2.2% | Neu (0 mg/kg, dose level Control): 16.4% | Plat (0 mg/kg, dose level Control): 122.3 x10_4/uL | RBC (0 mg/kg, dose level Control): 619.4 x10_4/ul | Ret (0 mg/kg, dose level Control): 8% | WBC (0 mg/kg, dose level Control): 73.5 x10_2/uL | KIDNEY_L (0 mg/kg, dose level Control): 1 g | KIDNEY_R (0 mg/kg, dose level Control): 1 g | KIDNEY_TOTAL (0 mg/kg, dose level Control): 2.1 g | LIVER (0 mg/kg, dose level Control): 10.8 g | A/G (0 mg/kg, dose level Control): 1 | ALP (0 mg/kg, dose level Control): 1437.2 IU/L | ALT (0 mg/kg, dose level Control): 38.6 IU/L | AST (0 mg/kg, dose level Control): 65.2 IU/L | BUN (0 mg/kg, dose level Control): 15.9 mg/dL | CRE (0 mg/kg, dose level Control): 0.2 mg/dL | Ca (0 mg/kg, dose level Control): 10.8 mg/dL | Cl (0 mg/kg, dose level Control): 103.3 meq/L | DBIL (0 mg/kg, dose level Control): 0 mg/dL | GLC (0 mg/kg, dose level Control): 188 mg/dL | IP (0 mg/kg, dose level Control): 6.6 mg/dL | K (0 mg/kg, dose level Control): 4.4 meq/L | LDH (0 mg/kg, dose level Control): 152.8 IU/L | Na (0 mg/kg, dose level Control): 141.3 meq/L | PL (0 mg/kg, dose level Control): 162.4 mg/dL | RALB (0 mg/kg, dose level Control): 2.9 g/dL | TBIL (0 mg/kg, dose level Control): 0.006 mg/dL | TC (0 mg/kg, dose level Control): 81.8 mg/dL | TG (0 mg/kg, dose level Control): 144.6 mg/dL | TP (0 mg/kg, dose level Control): 5.7 g/dL | gamma-GTP (0 mg/kg, dose level Control): 1 IU/L | TERMINAL_BW (100 mg/kg, dose level Low): 215.1 g | Bas (100 mg/kg, dose level Low): 0% | Eos (100 mg/kg, dose level Low): 0.4% | Hb (100 mg/kg, dose level Low): 13.6 g/dL | Ht (100 mg/kg, dose level Low): 41.7% | Lym (100 mg/kg, dose level Low): 66.4% | MCH (100 mg/kg, dose level Low): 20.4 pg | MCHC (100 mg/kg, dose level Low): 32.7% | MCV (100 mg/kg, dose level Low): 62.4 fL | Mono (100 mg/kg, dose level Low): 3.8% | Neu (100 mg/kg, dose level Low): 27.8% | Plat (100 mg/kg, dose level Low): 110.9 x10_4/uL | RBC (100 mg/kg, dose level Low): 669.4 x10_4/ul | Ret (100 mg/kg, dose level Low): 7.6% | WBC (100 mg/kg, dose level Low): 88.5 x10_2/uL | KIDNEY_L (100 mg/kg, dose level Low): 1 g | KIDNEY_R (100 mg/kg, dose level Low): 1 g | KIDNEY_TOTAL (100 mg/kg, dose level Low): 2 g | LIVER (100 mg/kg, dose level Low): 9.2 g | A/G (100 mg/kg, dose level Low): 1.1 | ALP (100 mg/kg, dose level Low): 1723.6 IU/L | ALT (100 mg/kg, dose level Low): 134.6 IU/L | AST (100 mg/kg, dose level Low): 347.6 IU/L | BUN (100 mg/kg, dose level Low): 18.8 mg/dL | CRE (100 mg/kg, dose level Low): 0.2 mg/dL | Ca (100 mg/kg, dose level Low): 10.8 mg/dL | Cl (100 mg/kg, dose level Low): 102 meq/L | DBIL (100 mg/kg, dose level Low): 0.046 mg/dL | GLC (100 mg/kg, dose level Low): 164.2 mg/dL | IP (100 mg/kg, dose level Low): 8 mg/dL | K (100 mg/kg, dose level Low): 4.3 meq/L | LDH (100 mg/kg, dose level Low): 883.2 IU/L | Na (100 mg/kg, dose level Low): 140.8 meq/L | PL (100 mg/kg, dose level Low): 141.4 mg/dL | RALB (100 mg/kg, dose level Low): 2.8 g/dL | TBIL (100 mg/kg, dose level Low): 0.084 mg/dL | TC (100 mg/kg, dose level Low): 73.4 mg/dL | TG (100 mg/kg, dose level Low): 34.1 mg/dL | TP (100 mg/kg, dose level Low): 5.4 g/dL | gamma-GTP (100 mg/kg, dose level Low): 0.9 IU/L | TERMINAL_BW (300 mg/kg, dose level Middle): 212.5 g | Bas (300 mg/kg, dose level Middle): 0% | Eos (300 mg/kg, dose level Middle): 0.6% | Hb (300 mg/kg, dose level Middle): 14.2 g/dL | Ht (300 mg/kg, dose level Middle): 43.1% | Lym (300 mg/kg, dose level Middle): 59.2% | MCH (300 mg/kg, dose level Middle): 20.9 pg | MCHC (300 mg/kg, dose level Middle): 32.9% | MCV (300 mg/kg, dose level Middle): 63.4 fL | Mono (300 mg/kg, dose level Middle): 3.2% | Neu (300 mg/kg, dose level Middle): 36.2% | Plat (300 mg/kg, dose level Middle): 115.8 x10_4/uL | RBC (300 mg/kg, dose level Middle): 680.2 x10_4/ul | Ret (300 mg/kg, dose level Middle): 7.6% | WBC (300 mg/kg, dose level Middle): 67.6 x10_2/uL | KIDNEY_L (300 mg/kg, dose level Middle): 1 g | KIDNEY_R (300 mg/kg, dose level Middle): 1 g | KIDNEY_TOTAL (300 mg/kg, dose level Middle): 1.9 g | LIVER (300 mg/kg, dose level Middle): 8.7 g | A/G (300 mg/kg, dose level Middle): 1.2 | ALP (300 mg/kg, dose level Middle): 1483.8 IU/L | ALT (300 mg/kg, dose level Middle): 94.6 IU/L | AST (300 mg/kg, dose level Middle): 245.8 IU/L | BUN (300 mg/kg, dose level Middle): 15 mg/dL | CRE (300 mg/kg, dose level Middle): 0.2 mg/dL | Ca (300 mg/kg, dose level Middle): 10.7 mg/dL | Cl (300 mg/kg, dose level Middle): 101.9 meq/L | DBIL (300 mg/kg, dose level Middle): 0.038 mg/dL | GLC (300 mg/kg, dose level Middle): 172.6 mg/dL | IP (300 mg/kg, dose level Middle): 8.1 mg/dL | K (300 mg/kg, dose level Middle): 4.1 meq/L | LDH (300 mg/kg, dose level Middle): 426 IU/L | Na (300 mg/kg, dose level Middle): 140.4 meq/L | PL (300 mg/kg, dose level Middle): 115.4 mg/dL | RALB (300 mg/kg, dose level Middle): 3 g/dL | TBIL (300 mg/kg, dose level Middle): 0.064 mg/dL | TC (300 mg/kg, dose level Middle): 60.8 mg/dL | TG (300 mg/kg, dose level Middle): 31.5 mg/dL | TP (300 mg/kg, dose level Middle): 5.5 g/dL | gamma-GTP (300 mg/kg, dose level Middle): 1 IU/L | TERMINAL_BW (600 mg/kg, dose level High): 197.8 g | Bas (600 mg/kg, dose level High): 0% | Eos (600 mg/kg, dose level High): 1% | Hb (600 mg/kg, dose level High): 14.9 g/dL | Ht (600 mg/kg, dose level High): 44.9% | Lym (600 mg/kg, dose level High): 35% | MCH (600 mg/kg, dose level High): 20.6 pg | MCHC (600 mg/kg, dose level High): 33.3% | MCV (600 mg/kg, dose level High): 61.9 fL | Mono (600 mg/kg, dose level High): 2.4% | Neu (600 mg/kg, dose level High): 61.8% | Plat (600 mg/kg, dose level High): 103.6 x10_4/uL | RBC (600 mg/kg, dose level High): 727.4 x10_4/ul | Ret (600 mg/kg, dose level High): 7.5% | WBC (600 mg/kg, dose level High): 51.6 x10_2/uL | KIDNEY_L (600 mg/kg, dose level High): 0.9 g | KIDNEY_R (600 mg/kg, dose level High): 0.9 g | KIDNEY_TOTAL (600 mg/kg, dose level High): 1.8 g | LIVER (600 mg/kg, dose level High): 7.9 g | A/G (600 mg/kg, dose level High): 1.1 | ALP (600 mg/kg, dose level High): 1527.2 IU/L | ALT (600 mg/kg, dose level High): 100.4 IU/L | AST (600 mg/kg, dose level High): 304 IU/L | BUN (600 mg/kg, dose level High): 13.9 mg/dL | CRE (600 mg/kg, dose level High): 0.1 mg/dL | Ca (600 mg/kg, dose level High): 10.5 mg/dL | Cl (600 mg/kg, dose level High): 101.5 meq/L | DBIL (600 mg/kg, dose level High): 0.022 mg/dL | GLC (600 mg/kg, dose level High): 174.4 mg/dL | IP (600 mg/kg, dose level High): 8 mg/dL | K (600 mg/kg, dose level High): 4.2 meq/L | LDH (600 mg/kg, dose level High): 476.8 IU/L | Na (600 mg/kg, dose level High): 139.4 meq/L | PL (600 mg/kg, dose level High): 105 mg/dL | RALB (600 mg/kg, dose level High): 3.1 g/dL | TBIL (600 mg/kg, dose level High): 0.044 mg/dL | TC (600 mg/kg, dose level High): 56.2 mg/dL | TG (600 mg/kg, dose level High): 25.4 mg/dL | TP (600 mg/kg, dose level High): 5.7 g/dL | gamma-GTP (600 mg/kg, dose level High): 1.1 IU/L
